From patent publication US7709645B2, “Pyrrolo-pyridine kinase modulators” (SGX Pharmaceuticals, Inc., priority 2004, dated 2010)
Substitutions are numbered along the chain they refer to. pIC50: −log10 of the molar value.

Assays:
[1] = target: T1, T315I mutant form of BCR-ABL in Ba/F3 cells (Homo sapiens, UniProt P00519, T315I); experiment: Abl_T315I p-ELISA Cellular Assay (BCR-ABL phospho-ELISA); type: cell-based; details: 60-120 minutes incubation
T1 construct: expressed in transfected cells; host or cells: Ba/F3 cells; the other entry of the earlier key: BCR (P11274, Breakpoint cluster region protein)
T1 sequence (P00519 242-493 T315I limits assumed): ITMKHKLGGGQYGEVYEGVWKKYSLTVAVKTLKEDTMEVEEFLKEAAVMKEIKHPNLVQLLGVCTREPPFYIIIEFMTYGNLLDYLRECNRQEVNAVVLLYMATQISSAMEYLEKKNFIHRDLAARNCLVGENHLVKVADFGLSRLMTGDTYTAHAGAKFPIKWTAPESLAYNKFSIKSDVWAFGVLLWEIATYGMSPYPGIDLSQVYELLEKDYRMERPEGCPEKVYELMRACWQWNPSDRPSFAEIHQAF
Method: Cells (Ba/F3 cells transfected with WT BCR-ABL, other kinases, or T315I, Y253F, M351T, E255K, or other mutant forms of BCR-ABL) were grown in the absence of IL-3 at least ½ week before the assay. The day before assay, the cells were fed with fresh media so that at the time of assay the cells were in log phase. Ba/F3 cells that had been grown in the absence of IL-3 for at least ½ week were resuspended in RPMI 1640 so that each well of a 96-well plate would contain approximately 200,000 cells. Cells were distributed in a 96-well plate containing serially diluted concentrations of test compounds. Cells were typically incubated with or without test compounds for 60-120 minutes at 5% CO2, 37° C. The incubation was performed with or without other additives such as 10% FCS or 50% human plasma. After incubation of compounds, lysis buffer was added and incubated for 10-15 minutes; the lysate was cleared by centrifugation.
To make the ELISA plate, commercially available Anti-ABL antibodies (e.g. (Ab-3, Calbiochem OP20) were prepared at a concentration of 0.125 μg/ml in coating buffer (0.1M Na-carbonate, pH 9.5), and plated at 10 ml per plate (12.5 μl 100 μg/ml Ab/10 ml). In a high binding multi-well plate, 100 μl Ab in coating buffer were added to each well, and each plate was covered with a plate seal and incubated overnight at 4° C.
Excess antibody was removed and the ELISA plate was washed 3-4 times with 200 μl of wash buffer (0.05% Tween in PBS, pH 7.4). 150 μl of lysate (see above) were transferred to the ELISA plate. Plates were sealed and incubated 2 hours at room temperature. The detection antibody (e.g. HRP conjugated anti-pTyr or unconjugated α-p-Y 4G10, Upstate) was prepared in assay diluent. The antibody was diluted 1:1000 (stock=2 μg/μl, 200 μg in 100 μl; f.c.=2 μg/ml) in assay diluent and 10 ml of diluted antibody per plate were added. The lysate was removed from the ELISA plates, and wells were washed four times with 200 μl of wash buffer per well. 100 μl of detection antibody was added to each well; the plate was covered, and incubated 1 hr at room temperature (21° C.). Excess detection antibody was removed from the ELISA plates, and the wells were washed four times with 200 μl of wash buffer per well.
If necessary, (i.e. for unconjugated anti-pTyr antibody) secondary antibody (goat anti-rabbit HRP) was diluted 1:3000 in assay diluent (3.33 μl per 10 ml diluent) and added at 10 ml of diluted antibody per plate. Excess secondary antibody was removed from the ELISA plate, and the plate was washed four times with 200 μl per well of wash buffer.
Substrate Reagent A and Substrate Reagent B (Pierce Cat#37070 SuperSignal ELISA Pico Chemiluminescent Substrate) were added immediately before use (10 ml resultant solution per plate). 100 μl substrate were added per well, mixed for 1 minute, and chemiluminescent signal was measured with a luminometer.

[2] = target: T2, Abl T315I kinase domain (unphosphorylated) (Mus musculus, UniProt P00520, T315I); experiment: Abl_T315I Bioassay (c-Abl PK/LDH coupled enzyme assay); type: biochemical; details: 10 μM ATP
T2 construct: purified and unphosphorylated T315I Abl kinase domain; made in house; host or cells: E. coli BL21(DE3) strains
T2 sequence (P00520 242-493 T315I limits assumed): T1 sequence (P00519 242-493 T315I limits assumed) with N95S
Excerpt: Although the first of these examples uses the kinase domain of a mutant form of Abl T315I (“Abl T315I KD”), the kinase assays may use various forms of mutant and wild type enzymes, including, for example, the entire protein, the kinase domain, or a portion thereof (e.g. Abl Y393F). The kinases used in the assays may also be of varying phosphorylation states. In the c-Abl example, a mutant kinase at a zero phosphorylation state was used.
In the c-Abl Pyruvate Kinase (PK)/Lactate Dehydrogenase (LDH) Coupled Assay the protein kinase dependant phosphorylation of a substrate peptide was coupled to the oxidation of NADH. The oxidation of NADH to NAD+ was detected by monitoring a decrease in absorbance at 340 nm.
Materials: Abl substrate peptide=EAIYAAPFAKKK (SEQ ID NO:1)-OH (Biopeptide, San Diego, Calif.); βNADH (Sigma Cat#N-8129, FW=709.4); 2M MgCl2; 1M HEPES buffer, pH 7.5; Phosphoenolpyruvate (PEP) (Sigma Cat#P-7002, FW=234); Lactate dehydrogenase (LDH) (Worthington Biochemical Cat#2756); Pyruvate Kinase (PK) (Sigma Cat#P-9136); ATP (Sigma Cat#A-3377, FW=551); Greiner 384-well UV star plate; and purified and unphosphorylated T315I Abl kinase domain.
Stock Solutions: 10 mM NADH (7.09 mg/ml in miliQH2O) made fresh daily; 10 mM Abl substrate peptide (13.4 mg/ml in miliQH2O) stored at −20° C.; 100 mM HEPES buffer, pH 7.5 (5 ml 1M stock+45 ml miliQH2O); 100 mM MgCl2 (5 ml 2M MgCl2+95 ml dH2O); 100 mM PEP (23.4 mg/ml in dH2O) stored at −20° C.; 10 mM ATP (5.51 mg/ml in dH2O) stored at −20° C. (diluted 50 μl into total of 10 ml miliQH2O daily=50 μM ATP working stock); 1000 U/ml PK (U/mg varies with lot) flash-frozen under liquid N2 and stored at −80° C.; and 1000 U/ml LDH (U/mg varies with lot) flash-frozen under liquid N2 and stored at −80° C.
Standard Assay Setup for 384-well format (50 μl reaction): 300 μM NADH; 10 mM MgCl2; 2 mM PEP; 45 U/ml PK; 60 U/ml LDH; 200 μM Abl substrate peptide; 2.5 μl test compound (in DMSO); 2 μg/ml Abl kinase domain; 10 μM ATP; 100 mM HEPES buffer. Positive controls contained DMSO with no test compound. Negative controls contained 5 μl of 0.5M EDTA (50 mM in the assay). The dephosphorylated form of the c-Abl T315I mutant was used in the biochemical screening assays. The kinase reaction was initiated at time t=0 by the addition of ATP.
Activity was measured by following the time-dependent loss of NADH by absorbance spectroscopy at 340 nm. The linear portion of the resulting progress curve was then analyzed by linear regression to get the activity in absorbance units/time, reported as the slope of that best fit line (moles/unit time can be calculated from using molar extinction coefficient for NADH at 340 nm, 6250M^−1 cm^−1).
Data was evaluated using the equation: Z′=1−[3*(σ++σ−)/|μ+−μ−|](Zhang, et al., 1999 J Biomol Screening 4(2) 67-73), where μ denotes the mean and σ the standard deviation. The subscript designates positive or negative controls. The Z′ score for a robust screening assay should be ≧0.50. The typical threshold=μ+−3*σ+. Any value that falls below the threshold was designated a “hit”.
Dose response was analyzed using the equation: y=min+{(max−min)/(1+10^[compound]−logIC50)}, where y is the observed initial slope, max=the slope in the absence of inhibitor, min=the slope at infinite inhibitor, and the IC50 is the [compound] that corresponds to ½ the total observed amplitude (Amplitude=max−min).
To measure modulation, activation, or inhibition of Abl KD, a test compound was added to the assay at a range of concentrations. Inhibitors may inhibit Abl KD activity at an IC50 in the micromolar range, the nanomolar range, or, for example, in the subnanomolar range.
An open-reading frame for c-Abl was amplified from a Mus musculus (mouse) cDNA library prepared from freshly harvested mouse liver using a commercially available kit (Invitrogen) by PCR using the following primers: […]
The c-Abl T315I KD (kinase domain) was purified as follows. […]

SMILES | pIC50 [1] | pIC50 [2]
COc1ccccc1-c1c[nH]c2ncc(-c3csc(C(=O)N4CCN(C)CC4)c3)cc12 [AE4] | 6.00 to 7.00 | > 7.30
COc1ccccc1-c1c[nH]c2ncc(-c3cccc(C(=O)N4CCN(C(C)C)CC4)c3)cc12 [AE7] | > 7.00 | > 7.30
COc1ccccc1-c1c[nH]c2ncc(-c3ccc4c(c3)C(=O)NCC(=O)N4)cc12 [AE12] | – | > 7.30
COc1ccccc1-c1c[nH]c2ncc(-c3c[nH]cn3)cc12 [AE19] | 6.00 to 7.00 | > 7.30
COc1ccccc1-c1c[nH]c2ncc(-c3cccc(C(=O)N4CCN(CCN5CCOCC5)CC4)c3)cc12 [AE24] | – | > 7.30
O=C(c1cccc(-c2cnc3[nH]cc(-c4ccccc4F)c3c2)c1)N1CCOCC1 [AE29] | 6.00 to 7.00 | > 7.30
COc1cccc(OC)c1-c1c[nH]c2ncc(-c3cccc(C(=O)N4CCOCC4)c3)cc12 [AE37] | > 7.00 | > 7.30
Oc1cccc(-c2cnc3[nH]cc(-c4ccoc4)c3c2)c1 [AE47] | – | > 7.30
Oc1cccc(-c2cnc3[nH]cc(Sc4ccccc4)c3c2)c1 [AE51] | – | 6.70 to 7.30

Further lines, results first:

pIC50 [1] | pIC50 [2] | SMILES
> 7.00 | > 7.30 | COc1ccccc1-c1c[nH]c2ncc(-c3cncc(C(=O)N(C)CCN(C)C)c3)cc12 [AE5]
> 7.00 | > 7.30 | COc1ccccc1-c1c[nH]c2ncc(-c3cccc(C(=O)N4CCC(CO)CC4)c3)cc12 [AE6]
6.00 to 7.00 | > 7.30 | CCc1ccccc1-c1c[nH]c2ncc(-c3cncc(C(=O)N(C)C)c3)cc12 [AE15]
6.00 to 7.00 | > 7.30 | CCOc1ccccc1-c1c[nH]c2ncc(-c3cncc(C(=O)N(C)C)c3)cc12 [AE16]
– | > 7.30 | CCOc1ccccc1-c1c[nH]c2ncc(-c3cncc(C(=O)NC)c3)cc12 [AE17]
6.00 to 7.00 | > 7.30 | CCc1ccccc1-c1c[nH]c2ncc(-c3ccnc(F)c3)cc12 [AE18]
– | > 7.30 | COc1ccccc1-c1c[nH]c2ncc(-c3cccc(C(=O)N(C)CCN(C)C)c3)cc12 [AE23]
> 7.00 | > 7.30 | COc1ccccc1-c1c[nH]c2ncc(-c3ccc(O)c(C(=O)N(C)CCN(C)C)c3)cc12 [AE25]
